Columns and labels:
PHD1 = biological target: T1, PHD1 (Homo sapiens, UniProt Q96KS0); assay: Prolyl hydroxylase assay (Eu-VBC binding to hydroxylated HIF-1α 556–574 peptide); assay type: biochemical; settings: 20 µM 2-oxoglutarate, 10 µM Fe2+, 2 mM ascorbate
T1 construct: made in house; host or cells: Sf9 insect cells (baculovirus, pBacPAC transfer vectors)
Experimental: (§1) Recombinant human HIF-PHs were purified from Sf9 insect cell lysates. After infection with the recombinant virus stocks, generated via cloning of the respective cDNAs into pBacPAC transfer vectors (Clontech Laboratories), Sf9 cells were incubated for 48 h at 27°C with continuous shaking. Expression of the recombinant protein was confirmed by SDS-PAGE and western blot analysis of the expressed proteins. The lysate was centrifuged at 75,000 g at 4°C for 30 min and the supernatant containing the soluble HIF-PHs was incubated for 1 h at 2–8°C with CM Sepharose. After several wash steps, bound proteins were eluted from Sepharose using a linear NaCl gradient. […]
(§2) Hydroxylated biotinyl-HIF-1α 556–574 was incubated with Eu-VBC in 100 µl binding buffer (50 mM Tris [pH 7.5], 120 mM NaCl) for 60 min at room temperature. After washing six times with DELFIA wash buffer (PerkinElmer) and adding 100 µl enhancer solution (PerkinElmer), the amount of bound VBC was determined by measuring time-resolved fluorescence with a Tecan infinite M200 plate reader. Measurements were taken in triplicate or more, and results were expressed as means ± SEM. IC50 values were determined after curve fitting using GraphPad Prism software (GraphPad Software, La Jolla, CA, USA) applying the four-parameter logistic equation to the data sets. […]

PHD3 = biological target: T2, PHD3 (Homo sapiens, UniProt Q9H6Z9); assay: as above; assay type: biochemical; settings: 20 µM 2-oxoglutarate, 10 µM Fe2+, 2 mM ascorbate
T2 construct: made in house; host or cells: Sf9 insect cells (baculovirus, pBacPAC transfer vectors)
T2 sequence (Q9H6Z9 whole entry): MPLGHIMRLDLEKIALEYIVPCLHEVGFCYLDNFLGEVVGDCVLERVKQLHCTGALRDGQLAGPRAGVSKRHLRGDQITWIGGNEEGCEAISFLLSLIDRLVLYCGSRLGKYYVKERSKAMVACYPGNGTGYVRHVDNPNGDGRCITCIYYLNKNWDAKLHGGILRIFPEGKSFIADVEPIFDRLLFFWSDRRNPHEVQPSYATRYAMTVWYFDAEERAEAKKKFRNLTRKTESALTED
Experimental: as §1, §2

HIF-1α and HIF-2α = assay: Western blot detection of HIF stabilization in HeLa, A549 and Hep3B cells; assay type: cell-based, human; settings: for induction threshold of detectable HIF: 2 h exposure
Experimental: A549 and HeLa carcinoma cell lines (American Type Culture Collection) were cultured in DMEM/F-12 (Gibco), and Hep3B cells in RPMI medium, both supplemented with antibiotics, L-glutamine and 10% fetal calf serum. A549 cells stably transfected with the HIF-RE2-luc HIF reporter construct (constructed in pGL3, Promega GmbH) were seeded on 384-well plates (Greiner) at a density of 2500 cells/well in a volume of 25 µl complete cell culture medium, and re-incubated for 16–24 h before the test. Test compounds were added at appropriate dilutions in a volume of 10 µl, and cells were re-incubated for 6 h before measurement. Luciferase activity was determined in a luminometer after addition of cell lysis/luciferase buffer. Cell line identities were verified by STR DNA typing (DSMZ GmbH).
For western blot analysis, cell lysates were separated on 4–12% SDS polyacrylamide gradient gels (Invitrogen). Proteins were blotted onto polyvinylidene difluoride (PVDF) membranes (Amersham Biosciences). HIF-1α protein was detected using a HIF-1α specific monoclonal antibody (BD Transduction Laboratories) at a dilution of 1∶250. HIF-2α protein was detected using a HIF-2α specific polyclonal antibody (Novus Biologicals) at a dilution of 1∶1000. Anti-β-actin antibody served as a loading control. […] Novex Sharp Pre-stained Protein Standard (Invitrogen) was used as molecular weight marker.
It was further explored whether inhibition of HIF-PHs would result in the stabilization of HIFs. Exposure of three different human cell lines (HeLa, A549, and Hep3B) to concentrations of BAY 85-3934 up to 10 µM for 2 h led to dose-dependent increases in both HIF-1α and HIF-2α. Within the individual cell lines, there was no difference between the HIF isoforms with regard to the threshold concentration of BAY 85-3934 that was necessary for the induction of detectable amounts of HIF. […] Exposure of HeLa cells to 5 µM BAY 85-3934 for 20 min was sufficient to induce detectable concentrations of HIF-1α (Fig. 1E). After exposure of A549 cells to 20 µM BAY 85-3934 for 120 min, with subsequent withdrawal of the culture medium and replacement with medium containing 100 µM cycloheximide (an inhibitor of protein synthesis), induction of HIF-1α was no longer detectable after 30 min (Fig. 1F). Therefore, it can be ruled out that disappearance of HIF-1α was the result of de novo synthesis of […].

T1 sequence (Q96KS0 whole entry): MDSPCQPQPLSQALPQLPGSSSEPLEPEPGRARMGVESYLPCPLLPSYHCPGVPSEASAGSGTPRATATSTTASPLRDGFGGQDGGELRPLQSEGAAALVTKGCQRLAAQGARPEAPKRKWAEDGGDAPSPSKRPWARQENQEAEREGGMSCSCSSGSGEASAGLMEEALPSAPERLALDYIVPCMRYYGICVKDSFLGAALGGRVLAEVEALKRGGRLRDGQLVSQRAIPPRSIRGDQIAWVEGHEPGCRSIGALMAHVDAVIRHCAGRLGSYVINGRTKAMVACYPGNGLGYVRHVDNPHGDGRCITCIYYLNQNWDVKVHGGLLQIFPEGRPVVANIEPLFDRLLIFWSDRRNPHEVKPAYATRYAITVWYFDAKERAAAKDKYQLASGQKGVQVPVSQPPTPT

O=c1c(-n2ccnn2)c[nH]n1-c1cc(N2CCOCC2)ncn1 [BAY 85-3934, 2-[6-(morpholin-4-yl)pyrimidin-4-yl]-4-(1H-1,2,3-triazol-1-yl)-1,2-dihydro-3H-pyrazol-3-one]
IC50 (PHD1): 480 nM
IC50 (PHD3): 450 nM
induction threshold of detectable HIF (HIF-1α and HIF-2α; A549 cells): 2.5 µM
induction threshold of detectable HIF (HIF-1α and HIF-2α; HeLa cells): 0.25 µM
induction threshold of detectable HIF (HIF-1α and HIF-2α; Hep3B cells): 0.5 µM
induction threshold of HIF (summary in discussion) (HIF-1α and HIF-2α; human cell lines): below 1 µM

Reference: article PMC4230943, “Mimicking Hypoxia to Treat Anemia: HIF-Stabilizer BAY 85-3934 (Molidustat) Stimulates Erythropoietin Production without Hypertensive Effects” (PLoS ONE, 2014)
